Our source for the fluorescence lifetime values is the Deep4Chem optical property database.

Structures are written as SMILES. Values joined by “and” are separate entries in the source; they are usually repeats but may differ in a detail not shown here. Equal values may be shown once.

A short description of this data set: solvent given as SMILES.
The mark [1] stands for this setting: in c1cc(-c2cccc(-n3c4ccccc4c4ccccc43)c2)cc(-n2c3ccccc3c3ccccc32)c1.

Under “in C1CCOC1”, `C(=C\c1ccccn1)/c1ccc(N(c2ccc(/C=C/c3ccccn3)cc2)c2ccc(-c3nc4ccccc4nc3-c3ccc(N(c4ccc(/C=C/c5ccccn5)cc4)c4ccc(/C=C/c5ccccn5)cc4)cc3)cc2)cc1` yielded a fluorescence lifetime of 1.17 ns.

Turning to `CN(C)c1ccc2nc(-c3ccccc3)sc2c1Cl`, where the note is “in C1CCCCC1”, the fluorescence lifetime turned out to be 0.1 ns.

With `[NH3+]c1cc([NH3+])cc(-c2nc3ccccc3s2)c1`, the fluorescence lifetime (in O) stood at 0.59 ns.

The molecule `C(=C\c1ccccc1)/c1ccccc1` registered a fluorescence lifetime (in CC#N) of 0.07 ns.

For `N#CC1=c2cc3c4c(c2Oc2c1cc1c5c2CCCN5CCC1)CCC[N+]=4CCC3`, under “in CCO”, the fluorescence lifetime amounted to 1.93 ns.

With `COc1ccc(-c2ccc3c(c2)c2cc(-c4ccc(OC)cc4)ccc2n3-c2ccc(C(=O)c3ccc4sc5ccccc5c4c3)cc2)cc1`, the fluorescence lifetime (in c1cc(-n2c3ccccc3c3ccccc32)cc(-n2c3ccccc3c3ccccc32)c1) stood at 7.8 ns.

`Cc1cc2ccc(-c3cccc4cccc(-c5ccc6cc(C)c(=O)oc6c5)c34)cc2oc1=O` came in with a fluorescence lifetime (in C1CCCCC1) of 0.85 ns, a fluorescence lifetime (in CC#N) of 2.72 ns and a fluorescence lifetime (in CO) of 5.38 ns.

Take `Cc1nc(-c2ccc(-n3c4ccccc4c4ccccc43)cc2)cc(-c2ccc(-n3c4ccccc4c4ccccc43)cc2)n1`: the fluorescence lifetime stood at 4.1 ns (in C1CCOC1), 6.95 ns (in CN(C)C=O), 2.05 ns (in Cc1ccccc1) and 3.86 ns (in ClC(Cl)Cl).

For `CC1=[N+]2C(=C(c3cccs3)c3ccc(C)n3[B-]2(F)F)C=C1c1cc2n(c1)[B-](F)(F)[N+]1=CC=CC1=C2c1c(C)cc(C)cc1C`, the fluorescence lifetime came to 2.67 ns (in C1CCCCC1) and 0.92 ns (in CCOC(C)=O).

Consider `Cc1ccc2c(c1)B(c1c(C(C)C)cc(C(C)C)cc1C(C)C)c1cc(C)cc3c1N2c1ccc(C)cc1B3c1c(C(C)C)cc(C(C)C)cc1C(C)C`, for which, for the setting “in Cc1ccccc1-c1cccc(Oc2cc3c4c(c2)Oc2cc(-c5ccccc5C)ccc2B4c2ccc(-c4ccccc4C)cc2O3)c1”, the fluorescence lifetime came to 6.01 ns.

As for `O=Cc1ccc(C#CC(C#Cc2ccc(C=O)s2)=Cc2ccc(C=C(C#Cc3ccc(C=O)s3)C#Cc3ccc(C=O)s3)s2)s1`, for the setting “in ClC(Cl)Cl”, the fluorescence lifetime was found to be 0.5 ns.

As to `O=C1OC(=O)c2ccc(N(c3ccccc3)c3c4ccccc4cc4ccccc34)c3cccc1c23`, the fluorescence lifetime (in C1CCOC1) is 0.64 ns, the fluorescence lifetime (in CCCCCC) was 5.4 ns and the fluorescence lifetime (in c1ccccc1) came to 2.14 ns.

`c1ccc(N(c2ccccc2)c2ccc(N(c3ccccc3)c3ccc4ccc5c(N(c6ccccc6)c6ccc(N(c7ccccc7)c7ccccc7)cc6)ccc6ccc3c4c65)cc2)cc1` gave a fluorescence lifetime (in ClCCl) of 2.7 ns.

Molecule `C(=C\c1ccccc1/C=C/c1c2ccccc2cc2ccccc12)/c1ccncc1` came in with a fluorescence lifetime (in C1CCOC1) of 3.38 ns.

As to `O=c1oc2ccc3ccccc3c2nc1-c1ccccc1`, under “in c1ccccc1”, the fluorescence lifetime was 2.2 ns and 2.6 ns.

For `C[Si](C)(C)C#Cc1cc2ccc3cc(C#C[Si](C)(C)C)cc4ccc(c1)c2c34`, the fluorescence lifetime (in Cc1ccccc1) came to 99 ns.

In turn, `CCN(CC)/C(C)=N\c1ccc2c3c(cccc13)C(=O)c1ccccc1-2` returned a fluorescence lifetime (in ClC(Cl)Cl) of 8.07 ns.

Take `N#C/C(=C\c1ccc(C#N)cc1)c1nc(-c2ccc(Cl)cc2)cs1`: the fluorescence lifetime (in CC#N) came to 2.85 ns.

With `N#Cc1c[nH]c2ccccc12`, the fluorescence lifetime came to 3.1 ns (in C1CCOC1), 3 ns (in C1COCCO1), 1.8 ns (in CC#N) and 0.2 ns (in CS(C)=O).

With `COc1cc2c(cc1-c1ccccc1)Cc1c3c(c4c(c1-2)-c1cc(OC)c(-c2ccccc2)cc1C4)C(=O)N(CCC(C)C)C3=O`, the fluorescence lifetime by setting is: (in C1CCOC1) 3.87 ns; (in CC#N) 6.33 ns; (in CC(C)=O) 5.36 ns; (in CCOC(C)=O) 3.99 ns; (in CS(C)=O) 6.41 ns; (in Cc1ccccc1) 2.55 ns. In addition, the fluorescence lifetime was 5.95 ns (in ClC(Cl)Cl) and 5.64 ns (in ClCCl).

As for `COc1ccc2cc(/C=C/C3=CC(c4ccccc4)=[O+][B-](F)(F)O3)ccc2c1`, where the note is “in ClCCl”, the fluorescence lifetime was 2.53 ns.

For the molecule `C(#Cc1ccccc1)c1ccccc1`, the fluorescence lifetime (in ClC(Cl)Cl) turned out to be 3.89 ns.

With `CC1(C)CC(NCc2ccc3ccc4cccc5ccc2c3c45)CC(C)(C)N1`, the fluorescence lifetime came out at 61.8 ns (in C1CCCCC1), 26.2 ns (in CC#N), 41.9 ns (in CO) and 36.1 ns (in ClC(Cl)Cl).

`CC[B-]1(CC)c2cccc3cc4ccccc4c(c23)-c2cccc(C)[n+]21` came in with a fluorescence lifetime (in ClCCl) of 4.1 ns.

As for `CC(C)(C)c1ccc2c(c1)c1cc(C(C)(C)C)ccc1n2-c1ccc(C#Cc2ccc(C=C(C#N)C#N)cc2)cc1`, the fluorescence lifetime (in ClCCl) is 4.2 ns.

As to `c1ccc(N(c2ccccc2)c2ccc(-c3ccc4c(c3)C3(c5cc(-c6ccc(N(c7ccccc7)c7ccccc7)cc6)ccc5-4)c4ccccc4N(c4ccccc4)c4ccccc43)cc2)cc1`, the fluorescence lifetime (in ClCCl) was 1.2 ns.

For `ClC(Cl)=C1c2ccccc2C(C2(Cl)c3ccccc3C(=C(Cl)Cl)c3ccccc32)c2ccccc21` (stereo unspecified), the fluorescence lifetime is, setting by setting: (in C1CCCCC1) 10.4 ns; (in CCCCCO) 16 ns; (in CCCCO) 12.6 ns; (in CCCO) 11.9 ns; (in CCO) 11.7 ns; (in CO) 11.2 ns.

Take `F[B-]1(F)OC(c2ccc(C(F)(F)F)cc2)=Cc2cc(Cl)nc[n+]21`: the fluorescence lifetime was 0.13 ns (in C1CCOC1) and 0.21 ns (in Cc1ccccc1).

In the case of `[NH3+]c1cc([NH3+])cc(-c2[nH+]c3ccccc3s2)c1`, the fluorescence lifetime (in O) turned out to be 0.52 ns.

For `CC(C)c1cc(C(C)C)c(B2c3cc(-n4c5ccccc5c5ccccc54)ccc3N(c3ccccc3)c3ccc(-n4c5ccccc5c5ccccc54)cc32)c(C(C)C)c1`, the fluorescence lifetime under setting [1] is 15 ns.

The molecule `N#Cc1nc2c3ccc(N(c4ccccc4)c4ccccc4)cc3c3cc(N(c4ccccc4)c4ccccc4)ccc3c2nc1C#N` yielded a fluorescence lifetime (in O=P(c1ccccc1)(c1ccccc1)c1cccc(-c2cc(-n3c4ccccc4c4ccccc43)cc(-n3c4ccccc4c4ccccc43)c2)n1) of 13.4 ns.

With `c1ccc(-c2nnc(-c3cc(-c4nnc(-c5ccccc5)o4)c(-n4c5ccccc5c5ccccc54)cc3-n3c4ccccc4c4ccccc43)o2)cc1`, the fluorescence lifetime worked out at 4.9 ns (in Cc1ccccc1) and 8.6 ns (in O=P(c1ccccc1)(c1ccccc1)c1ccccc1Oc1ccccc1P(=O)(c1ccccc1)c1ccccc1).

In turn, `c1ccc(C[n+]2cc3ccc4c[n+](Cc5ccccc5)cc5ccc(c2)c3c45)cc1` had a fluorescence lifetime (in CC#N) of 4.3 ns.

On to `O=C1c2ccc3c4ccc5c6c(ccc(c7ccc(c2c37)C(=O)N1c1ccc(O)cc1)c64)C(=O)N(c1ccc(O)cc1)C5=O`, for which the fluorescence lifetime runs as follows: (in C1CCOC1) 1.6 ns; (in CN1CCCC1=O) 0.2 ns; (in CN(C)C=O) 2.2 ns and 3.9 ns.

`CCCCCCCCN1C(=O)c2ccc3c4c(-c5ccc(-n6c7ccccc7c7ccccc76)cc5)cc5c6c(cc(-c7ccc(-n8c9ccccc9c9ccccc98)cc7)c(c7ccc(c2c37)C1=O)c64)C(=O)N(CCCCCCCC)C5=O` had a fluorescence lifetime (in ClC(Cl)Cl) of 3.3 ns.

In the case of `CCc1c(C(=O)OC)c(C(=O)OC)c2ccc(-c3ccccc3)nn12`, the fluorescence lifetime (in CCCCCC) came out at 21.1 ns.

Take `COc1ccc2c(-c3nc(-c4cccc(Br)c4)no3)cc(=O)oc2c1`: the fluorescence lifetime (in ClC(Cl)Cl) stood at 6.8 ns.

As for `Cc1cc(C(F)(F)F)nc2c1ccc1nc(-c3ccc(F)c(F)c3)cn12`, the fluorescence lifetime runs as follows: (in CC#N) 8.58 ns; (in CCCCOC(C)=O) 7.28 ns; (in CCOC(C)=O) 7.26 ns; (in CO) 8.3 ns; (in c1ccccc1) 6.69 ns.

As for `COc1ccc(-c2cc3c(s2)c(C(=O)c2ccccc2)cc(=O)n3Cc2ccccc2)cc1`, under “in ClCCl”, the fluorescence lifetime is 5.3 ns.

Turning to `O=S(=O)([O-])c1ccc([O-])c2ccccc12`, where the note is “in O”, the fluorescence lifetime was 15 ns.

As to `Cc1cc(-c2ccc(-n3c4ccccc4c4ccccc43)cc2)nc(-c2ccc(-n3c4ccccc4c4ccccc43)cc2)n1`, the fluorescence lifetime by setting is: (in C1CCOC1) 4.26 ns; (in CN(C)C=O) 7.57 ns; (in Cc1ccccc1) 2.44 ns; (in ClC(Cl)Cl) 4.11 ns.

Molecule `Cc1cc(C)c(-c2c3ccccc3c3ccc4cc5c(-c6c(C)cc(C)cc6C)c6ccccc6c6ccc7cc2c3c4c7c56)c(C)c1` returned a fluorescence lifetime (in ClCCl) of 11.5 ns.

`N#Cc1ccc(N)cc1` showed a fluorescence lifetime (in C1CCCCC1) of 5.6 ns; a fluorescence lifetime (in CC#N) of 2.6 ns; a fluorescence lifetime (in CCCCCC) of 3.2 ns; a fluorescence lifetime (in CCO) of 0.68 ns; a fluorescence lifetime (in O) of 0.067 ns; a fluorescence lifetime (in OCC(F)(F)F) of 0.13 ns.

With `CCCCCCCCC1(CCCCCCCC)c2ccccc2-c2ccc(N(c3ccc(-n4c5ccccc5c5ccccc54)cc3)c3ccc4c(c3)C(CCCCCCCC)(CCCCCCCC)c3ccccc3-4)cc21`, the fluorescence lifetime by setting is: (in C1CCOC1) 1.8 ns; (in CC#N) 1.8 ns; (in CC(C)=O) 1.75 ns; (in CCCCCC) 1.68 ns; (in CCCCOCCCC) 1.78 ns; (in CCN(CC)CC) 1.69 ns. The fluorescence lifetime was 1.66 ns (in CCOC(C)=O); 1.97 ns (in CCOCC); 1.87 ns (in CN(C)C=O); 1.75 ns (in Cc1ccccc1); 1.62 ns (in ClCCl).

Turning to `O=[N+]([O-])c1ccc(C#Cc2ccc3ccccc3c2)cc1`, the fluorescence lifetime came to 0.25 ns (in ClC(Cl)Cl) and 0.35 ns (in ClCCl).

Regarding `N#Cc1nc(-c2ccc(N3c4ccccc4Oc4ccccc43)cc2)c(-c2ccc(N3c4ccccc4Oc4ccccc43)cc2)nc1C#N`, the fluorescence lifetime under setting [1] stood at 21 ns.

On to `COc1ccc(C(=Cc2ccc(C=O)cc2)c2ccc(OC)cc2)cc1`, for which the fluorescence lifetime (in C1CCOC1) was found to be 6.7 ns.

In the case of `F[B-]1(F)n2c(-c3ccccc3)cc(-c3ccccc3)c2N=C2C(c3ccccc3)=CC(c3ccccc3)=[N+]21`, under “in CC#N”, the fluorescence lifetime stood at 0.78 ns.

`C[Si]1(C)c2ccc(-c3ccc(N(c4ccccc4)c4ccccc4)cc3)cc2C=Cc2cc(-c3ccc(N(c4ccccc4)c4ccccc4)cc3)ccc21`: the fluorescence lifetime (in ClCCl) is 5.9 ns.

Turning to `Nc1ccc2c(-c3ccccc3C(=O)[O-])c3ccc(=[NH2+])cc-3oc2c1`, the fluorescence lifetime reads like this: (in CC#N) 4.03 ns; (in CCO) 4 ns; (in CN(C)C=O) 3.68 ns; (in O) 4.28 ns.
